Results reported in ChEMBL document CHEMBL4507275, “Data for DCP probe BI-2545” (2021).

Experiments:
[1] = molecular target: 5-hydroxytryptamine receptor 1B (Homo sapiens) (UniProt P28222); conditions: Compound concentration 10.0 uM
[2] = molecular target: Alpha-1B adrenergic receptor (Homo sapiens) (UniProt P35368); conditions: Compound concentration 10.0 uM
[3] = molecular target: Serine/threonine-protein kinase pim-2 (Homo sapiens) (UniProt Q9P1W9); conditions: Compound concentration 1000.0 nM
Serine/threonine-protein kinase pim-2 (Homo sapiens), sequence (Q9P1W9 whole entry, looked up, canonical isoform): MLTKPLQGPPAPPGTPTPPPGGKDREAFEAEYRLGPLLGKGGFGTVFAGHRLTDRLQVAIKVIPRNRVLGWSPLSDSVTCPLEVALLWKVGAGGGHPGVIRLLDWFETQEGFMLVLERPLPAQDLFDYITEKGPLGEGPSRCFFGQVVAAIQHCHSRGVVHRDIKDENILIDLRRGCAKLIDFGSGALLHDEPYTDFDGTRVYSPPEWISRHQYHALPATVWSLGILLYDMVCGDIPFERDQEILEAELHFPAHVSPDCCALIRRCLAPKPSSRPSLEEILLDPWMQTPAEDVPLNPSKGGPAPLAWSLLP

[4] = molecular target: Casein kinase I isoform gamma-1 (Homo sapiens) (UniProt Q9HCP0); conditions: Compound concentration 1000.0 nM
[5] = molecular target: Serine/threonine-protein kinase 25 (Homo sapiens) (UniProt O00506); conditions: Compound concentration 1000.0 nM
[6] = molecular target: Cyclin-dependent kinase-like 1 (Homo sapiens) (UniProt Q00532); conditions: Compound concentration 1000.0 nM
[7] = molecular target: Mast/stem cell growth factor receptor Kit (Homo sapiens) (UniProt P10721); conditions: Compound concentration 1000.0 nM
Mast/stem cell growth factor receptor Kit (Homo sapiens), sequence (P10721 whole entry): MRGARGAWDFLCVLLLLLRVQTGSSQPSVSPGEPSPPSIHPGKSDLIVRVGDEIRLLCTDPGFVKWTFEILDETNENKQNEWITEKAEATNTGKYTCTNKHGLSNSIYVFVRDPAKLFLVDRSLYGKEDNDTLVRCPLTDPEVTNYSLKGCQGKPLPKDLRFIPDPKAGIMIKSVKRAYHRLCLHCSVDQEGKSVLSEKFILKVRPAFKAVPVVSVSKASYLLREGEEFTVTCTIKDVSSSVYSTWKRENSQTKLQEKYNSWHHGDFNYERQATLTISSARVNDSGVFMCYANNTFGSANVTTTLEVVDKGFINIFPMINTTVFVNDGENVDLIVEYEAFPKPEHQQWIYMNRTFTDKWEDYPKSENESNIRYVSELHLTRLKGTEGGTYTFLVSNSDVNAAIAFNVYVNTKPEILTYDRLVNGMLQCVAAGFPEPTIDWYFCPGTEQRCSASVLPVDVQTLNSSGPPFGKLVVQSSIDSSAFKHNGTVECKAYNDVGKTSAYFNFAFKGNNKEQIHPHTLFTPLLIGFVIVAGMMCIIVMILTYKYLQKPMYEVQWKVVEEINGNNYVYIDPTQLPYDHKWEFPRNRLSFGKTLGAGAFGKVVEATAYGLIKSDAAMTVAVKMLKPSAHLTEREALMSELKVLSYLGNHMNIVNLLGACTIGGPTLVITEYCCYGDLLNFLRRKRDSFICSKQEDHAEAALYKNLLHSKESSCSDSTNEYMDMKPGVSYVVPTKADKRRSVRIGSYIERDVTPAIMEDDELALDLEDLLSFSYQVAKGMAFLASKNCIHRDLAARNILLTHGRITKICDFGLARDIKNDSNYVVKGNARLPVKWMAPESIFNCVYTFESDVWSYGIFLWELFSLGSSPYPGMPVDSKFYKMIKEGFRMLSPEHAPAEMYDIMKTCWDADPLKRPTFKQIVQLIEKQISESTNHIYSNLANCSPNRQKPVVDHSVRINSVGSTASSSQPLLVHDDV

[8] = molecular target: Cyclin-dependent kinase 3 (Homo sapiens) (UniProt Q00526); conditions: Compound concentration 1000.0 nM
[9] = molecular target: Dual specificity protein kinase CLK2 (Homo sapiens) (UniProt P49760); conditions: Compound concentration 1000.0 nM
[10] = molecular target: Myosin-IIIb (Homo sapiens) (UniProt Q8WXR4); conditions: Compound concentration 1000.0 nM
[11] = molecular target: Serine/threonine-protein kinase ICK (Homo sapiens) (UniProt Q9UPZ9); conditions: Compound concentration 1000.0 nM
[12] = molecular target: Tyrosine-protein kinase receptor TYRO3 (Homo sapiens) (UniProt Q06418); conditions: Compound concentration 1000.0 nM
[13] = molecular target: Ribosomal protein S6 kinase alpha-6 (Homo sapiens) (UniProt Q9UK32); conditions: Compound concentration 1000.0 nM
Ribosomal protein S6 kinase alpha-6 (Homo sapiens), sequence (Q9UK32 whole entry): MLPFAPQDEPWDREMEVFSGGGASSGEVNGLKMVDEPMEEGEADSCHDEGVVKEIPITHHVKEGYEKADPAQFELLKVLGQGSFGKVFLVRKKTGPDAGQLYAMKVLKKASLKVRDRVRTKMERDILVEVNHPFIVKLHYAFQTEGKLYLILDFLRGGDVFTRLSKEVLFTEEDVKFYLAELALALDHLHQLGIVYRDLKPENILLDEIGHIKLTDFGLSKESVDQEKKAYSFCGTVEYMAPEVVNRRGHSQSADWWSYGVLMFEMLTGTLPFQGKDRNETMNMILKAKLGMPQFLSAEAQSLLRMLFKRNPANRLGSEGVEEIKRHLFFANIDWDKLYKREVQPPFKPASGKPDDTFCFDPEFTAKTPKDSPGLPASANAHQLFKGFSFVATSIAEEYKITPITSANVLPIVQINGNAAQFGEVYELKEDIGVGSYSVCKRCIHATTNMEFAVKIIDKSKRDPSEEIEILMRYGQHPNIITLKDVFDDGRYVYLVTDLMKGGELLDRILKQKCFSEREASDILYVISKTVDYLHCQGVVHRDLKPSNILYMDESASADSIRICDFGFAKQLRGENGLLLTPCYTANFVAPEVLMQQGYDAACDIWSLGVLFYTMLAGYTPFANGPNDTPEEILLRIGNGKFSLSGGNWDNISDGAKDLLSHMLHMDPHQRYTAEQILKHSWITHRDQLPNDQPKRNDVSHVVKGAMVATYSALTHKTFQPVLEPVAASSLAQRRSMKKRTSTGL

[14] = molecular target: 5-hydroxytryptamine receptor 6 (Homo sapiens) (UniProt P50406); conditions: Compound concentration 10.0 uM
[15] = molecular target: Cyclin-dependent kinase 4 (Homo sapiens) (UniProt P11802); conditions: Compound concentration 1000.0 nM
[16] = molecular target: Serine/threonine-protein kinase PLK4 (Homo sapiens) (UniProt O00444); conditions: Compound concentration 1000.0 nM
Serine/threonine-protein kinase PLK4 (Homo sapiens), sequence (O00444 whole entry): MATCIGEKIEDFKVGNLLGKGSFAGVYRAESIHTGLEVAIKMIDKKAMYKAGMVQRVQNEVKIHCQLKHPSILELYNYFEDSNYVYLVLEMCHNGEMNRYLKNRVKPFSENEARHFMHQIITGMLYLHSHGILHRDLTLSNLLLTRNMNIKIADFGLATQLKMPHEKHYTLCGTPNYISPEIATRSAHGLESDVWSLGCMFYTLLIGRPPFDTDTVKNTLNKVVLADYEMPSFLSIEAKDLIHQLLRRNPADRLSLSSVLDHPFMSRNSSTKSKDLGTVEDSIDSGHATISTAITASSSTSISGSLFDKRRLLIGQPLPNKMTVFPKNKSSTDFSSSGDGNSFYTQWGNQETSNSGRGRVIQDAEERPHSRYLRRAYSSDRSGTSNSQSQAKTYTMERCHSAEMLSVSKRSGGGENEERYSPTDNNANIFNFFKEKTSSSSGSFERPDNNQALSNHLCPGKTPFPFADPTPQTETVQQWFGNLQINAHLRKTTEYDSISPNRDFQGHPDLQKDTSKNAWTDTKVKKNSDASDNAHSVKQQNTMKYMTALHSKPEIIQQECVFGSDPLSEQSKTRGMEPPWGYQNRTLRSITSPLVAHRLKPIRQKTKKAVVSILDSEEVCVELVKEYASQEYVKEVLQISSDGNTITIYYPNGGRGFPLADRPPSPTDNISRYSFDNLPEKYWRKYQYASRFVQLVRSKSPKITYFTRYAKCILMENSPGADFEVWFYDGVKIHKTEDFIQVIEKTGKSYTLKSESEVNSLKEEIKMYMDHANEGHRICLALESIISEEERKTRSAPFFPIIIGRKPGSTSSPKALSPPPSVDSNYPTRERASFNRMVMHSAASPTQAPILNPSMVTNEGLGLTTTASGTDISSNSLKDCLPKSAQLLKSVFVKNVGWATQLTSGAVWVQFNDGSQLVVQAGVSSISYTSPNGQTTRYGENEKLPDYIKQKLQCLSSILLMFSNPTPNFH

[17] = molecular target: Tyrosine-protein kinase HCK (Homo sapiens) (UniProt P08631); conditions: Compound concentration 1000.0 nM
[18] = molecular target: 5-hydroxytryptamine receptor 2B (Homo sapiens) (UniProt P41595); conditions: Compound concentration 10.0 uM
[19] = molecular target: Testis-specific serine/threonine-protein kinase 1 (Homo sapiens) (UniProt Q9BXA7); conditions: Compound concentration 1000.0 nM
[20] = molecular target: MAP kinase-interacting serine/threonine-protein kinase 1 (Homo sapiens) (UniProt Q9BUB5); conditions: Compound concentration 1000.0 nM
[21] = molecular target: Ephrin type-A receptor 8 (Homo sapiens) (UniProt P29322); conditions: Compound concentration 1000.0 nM
[22] = molecular target: Homeodomain-interacting protein kinase 1 (Homo sapiens) (UniProt Q86Z02); conditions: Compound concentration 1000.0 nM
[23] = molecular target: Calcium/calmodulin-dependent protein kinase type IV (Homo sapiens) (UniProt Q16566); conditions: Compound concentration 1000.0 nM
Calcium/calmodulin-dependent protein kinase type IV (Homo sapiens), sequence (Q16566 whole entry): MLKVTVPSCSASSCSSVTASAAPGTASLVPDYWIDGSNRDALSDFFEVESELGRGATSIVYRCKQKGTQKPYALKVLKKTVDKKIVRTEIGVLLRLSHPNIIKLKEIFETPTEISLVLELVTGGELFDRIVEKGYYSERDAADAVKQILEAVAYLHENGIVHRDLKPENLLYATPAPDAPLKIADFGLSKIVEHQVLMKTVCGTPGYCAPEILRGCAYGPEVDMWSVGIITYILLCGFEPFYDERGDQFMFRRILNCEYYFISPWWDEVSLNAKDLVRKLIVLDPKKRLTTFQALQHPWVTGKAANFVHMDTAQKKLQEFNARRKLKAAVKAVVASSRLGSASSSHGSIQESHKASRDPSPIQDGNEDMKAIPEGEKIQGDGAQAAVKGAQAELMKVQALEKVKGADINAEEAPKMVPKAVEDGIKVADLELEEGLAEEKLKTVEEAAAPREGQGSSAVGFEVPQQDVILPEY

[24] = molecular target: Serine/threonine-protein kinase TAO3 (Homo sapiens) (UniProt Q9H2K8); conditions: Compound concentration 1000.0 nM
[25] = molecular target: Misshapen-like kinase 1 (Homo sapiens) (UniProt Q8N4C8); conditions: Compound concentration 1000.0 nM
[26] = molecular target: Transient receptor potential cation channel subfamily M member 6 (Homo sapiens) (UniProt Q9BX84); conditions: Compound concentration 1000.0 nM
[27] = molecular target: Serine/threonine-protein kinase ULK1 (Homo sapiens) (UniProt O75385); conditions: Compound concentration 1000.0 nM
[28] = system: Tyrosine-protein kinase ABL1 (Homo sapiens), P00519 [H396P]; conditions: Compound concentration 1000.0 nM
[29] = molecular target: Wee1-like protein kinase 2 (Homo sapiens) (UniProt P0C1S8); conditions: Compound concentration 1000.0 nM
[30] = molecular target: Serine/threonine-protein kinase PRP4 homolog (Homo sapiens) (UniProt Q13523); conditions: Compound concentration 1000.0 nM
[31] = molecular target: Serine/threonine-protein kinase PAK 6 (Homo sapiens) (UniProt Q9NQU5); conditions: Compound concentration 1000.0 nM
[32] = system: Phosphatidylinositol 4,5-bisphosphate 3-kinase catalytic subunit alpha isoform (Homo sapiens), P42336 [Q546K]; conditions: Compound concentration 1000.0 nM
[33] = molecular target: Calcium/calmodulin-dependent protein kinase type II subunit beta (Homo sapiens) (UniProt Q13554); conditions: Compound concentration 1000.0 nM
[34] = molecular target: Serine/threonine-protein kinase SBK1 (Homo sapiens) (UniProt Q52WX2); conditions: Compound concentration 1000.0 nM
[35] = molecular target: Sigma non-opioid intracellular receptor 1 (Homo sapiens, UniProt Q99720); conditions: Compound concentration 10.0 uM
Sigma non-opioid intracellular receptor 1, sequence (Q99720 whole entry): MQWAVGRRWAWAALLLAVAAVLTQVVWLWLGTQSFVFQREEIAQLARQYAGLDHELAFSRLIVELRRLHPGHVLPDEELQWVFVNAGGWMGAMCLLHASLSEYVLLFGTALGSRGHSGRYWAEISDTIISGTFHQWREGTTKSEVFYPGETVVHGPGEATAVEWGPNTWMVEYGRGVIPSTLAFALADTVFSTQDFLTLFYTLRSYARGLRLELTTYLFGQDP

[36] = molecular target: Tyrosine-protein kinase JAK2 (Homo sapiens) (UniProt O60674); conditions: Compound concentration 1000.0 nM
[37] = molecular target: Serine/threonine-protein kinase PLK2 (Homo sapiens) (UniProt Q9NYY3); conditions: Compound concentration 1000.0 nM
[38] = molecular target: Alpha-2C adrenergic receptor (Homo sapiens) (UniProt P18825); conditions: Compound concentration 10.0 uM
[39] = molecular target: Ribosomal protein S6 kinase alpha-5 (Homo sapiens) (UniProt O75582); conditions: Compound concentration 1000.0 nM
[40] = molecular target: Serine/threonine-protein kinase PAK 3 (Homo sapiens) (UniProt O75914); conditions: Compound concentration 1000.0 nM
[41] = molecular target: Angiopoietin-1 receptor (Homo sapiens) (UniProt Q02763); conditions: Compound concentration 1000.0 nM
Angiopoietin-1 receptor (Homo sapiens), sequence (Q02763 whole entry): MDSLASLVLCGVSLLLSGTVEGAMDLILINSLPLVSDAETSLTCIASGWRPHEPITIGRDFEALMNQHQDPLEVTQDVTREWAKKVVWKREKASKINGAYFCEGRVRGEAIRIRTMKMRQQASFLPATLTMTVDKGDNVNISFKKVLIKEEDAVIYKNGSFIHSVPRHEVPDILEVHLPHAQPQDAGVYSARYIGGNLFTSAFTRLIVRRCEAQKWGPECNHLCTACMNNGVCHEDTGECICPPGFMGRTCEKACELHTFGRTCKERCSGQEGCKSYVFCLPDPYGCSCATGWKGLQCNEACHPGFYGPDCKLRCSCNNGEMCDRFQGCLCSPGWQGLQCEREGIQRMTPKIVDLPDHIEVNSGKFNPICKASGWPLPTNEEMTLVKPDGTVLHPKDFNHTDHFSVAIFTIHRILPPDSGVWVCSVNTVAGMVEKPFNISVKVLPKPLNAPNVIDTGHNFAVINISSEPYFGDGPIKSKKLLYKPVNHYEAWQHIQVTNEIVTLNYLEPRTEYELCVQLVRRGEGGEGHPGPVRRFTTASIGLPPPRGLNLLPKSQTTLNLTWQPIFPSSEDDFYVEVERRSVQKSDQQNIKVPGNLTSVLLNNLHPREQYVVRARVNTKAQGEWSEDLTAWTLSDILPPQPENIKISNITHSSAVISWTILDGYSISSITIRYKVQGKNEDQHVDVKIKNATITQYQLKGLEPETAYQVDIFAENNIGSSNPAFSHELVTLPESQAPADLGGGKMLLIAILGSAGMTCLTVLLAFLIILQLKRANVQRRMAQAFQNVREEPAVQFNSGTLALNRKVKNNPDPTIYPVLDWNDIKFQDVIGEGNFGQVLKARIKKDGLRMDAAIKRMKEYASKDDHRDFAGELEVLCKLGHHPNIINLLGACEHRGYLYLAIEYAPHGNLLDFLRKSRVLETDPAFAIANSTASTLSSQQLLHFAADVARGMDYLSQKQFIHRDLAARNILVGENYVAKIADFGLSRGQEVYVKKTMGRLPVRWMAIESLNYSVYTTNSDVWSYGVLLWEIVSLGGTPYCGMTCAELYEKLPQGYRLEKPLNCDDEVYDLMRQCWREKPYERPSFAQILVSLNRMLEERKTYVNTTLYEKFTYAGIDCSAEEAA

[42] = molecular target: Serine/threonine-protein kinase DCLK2 (Homo sapiens) (UniProt Q8N568); conditions: Compound concentration 1000.0 nM
[43] = molecular target: Aurora kinase A (Homo sapiens) (UniProt O14965); conditions: Compound concentration 1000.0 nM
[44] = molecular target: Interleukin-1 receptor-associated kinase 3 (Homo sapiens) (UniProt Q9Y616); conditions: Compound concentration 1000.0 nM
[45] = molecular target: Tyrosine-protein kinase receptor Tie-1 (Homo sapiens) (UniProt P35590); conditions: Compound concentration 1000.0 nM

SMILES: O=C(NC[C@@H]1[C@H]2CN(C(=O)OCc3cc(C(F)(F)F)cc(C(F)(F)F)c3)C[C@@H]12)c1ccc2[nH]nnc2c1 [BI 2545]
- inhibition [1]: 17.9%
- inhibition [2]: 33.4%
- residual activity [3]: 100%
- residual activity [4]: 97%
- residual activity [5]: 95%
- residual activity [6]: 84%
- residual activity [7]: 90%
- residual activity [8]: 94%
- residual activity [9]: 86%
- residual activity [10]: 100%
- residual activity [11]: 100%
- residual activity [12]: 75%
- residual activity [13]: 86%
- inhibition [14]: 28.9%
- residual activity [15]: 95%
- residual activity [16]: 82%
- residual activity [17]: 100%
- inhibition [18]: 45.9%
- residual activity [19]: 100%
- residual activity [20]: 90%
- residual activity [21]: 100%
- residual activity [22]: 85%
- residual activity [23]: 100%
- residual activity [24]: 88%
- residual activity [25]: 72%
- residual activity [26]: 92%
- residual activity [27]: 92%
- residual activity [28]: 84%
- residual activity [29]: 93%
- residual activity [30]: 100%
- residual activity [31]: 93%
- residual activity [32]: 78%
- residual activity [33]: 100%
- residual activity [34]: 97%
- inhibition [35]: 51.2%
- residual activity [36]: 100%
- residual activity [37]: 89%
- inhibition [38]: 19%
- residual activity [39]: 100%
- residual activity [40]: 100%
- residual activity [41]: 89%
- residual activity [42]: 100%
- residual activity [43]: 93%
- residual activity [44]: 84%
- residual activity [45]: 77%

SMILES: Cc1nccc(COC(=O)N2C[C@@H]3[C@@H](CNC(=O)c4ccc5[nH]nnc5c4)[C@@H]3C2)n1 [BI 3017]
- inhibition [1]: 4.4%
- inhibition [2]: 30.2%
- residual activity [3]: 0%
- residual activity [4]: 100%
- residual activity [5]: 100%
- residual activity [6]: 81%
- residual activity [7]: 79%
- residual activity [8]: 97%
- residual activity [9]: 80%
- residual activity [10]: 100%
- residual activity [11]: 100%
- residual activity [12]: 100%
- residual activity [13]: 95%
- inhibition [14]: 26.1%
- residual activity [15]: 80%
- residual activity [16]: 83%
- residual activity [17]: 99%
- inhibition [18]: 27.1%
- residual activity [19]: 91%
- residual activity [20]: 91%
- residual activity [21]: 100%
- residual activity [22]: 82%
- residual activity [23]: 95%
- residual activity [24]: 83%
- residual activity [25]: 100%
- residual activity [26]: 85%
- residual activity [27]: 93%
- residual activity [28]: 93%
- residual activity [29]: 100%
- residual activity [30]: 95%
- residual activity [31]: 95%
- residual activity [32]: 85%
- residual activity [33]: 90%
- residual activity [34]: 93%
- inhibition [35]: 3.21%
- residual activity [36]: 93%
- residual activity [37]: 82%
- inhibition [38]: 3.82%
- residual activity [39]: 74%
- residual activity [40]: 75%
- residual activity [41]: 90%
- residual activity [42]: 100%
- residual activity [43]: 91%
- residual activity [44]: 100%
- residual activity [45]: 100%
